Reference: ChEMBL document CHEMBL1135220, “Novel, potent non-covalent thrombin inhibitors incorporating p(3)-lactam scaffolds” (Bioorg Med Chem Lett, 2002)

Columns and labels:
[1] = Oral bioavailability in dog (fasted); assay type: ADME, organism-based, Canis lupus familiaris; conditions: in vivo
Trypsin = Trypsin (Homo sapiens, UniProt P07477+P07478+P35030); test: Inhibitory constant against trypsin determined in Vitro; assay type: protein assay
Coagulation factor X [2] = target: T1, Coagulation factor X (Homo sapiens, UniProt P00742); test: Inhibitory constant against human Coagulation factor Xa determined in Vitro
Prothrombin = Prothrombin (Homo sapiens, UniProt P00734); test: Inhibitory constant against human thrombin (FIIa) determined in vitro
[3] = Maximum plasma concentration was determined in dogs at 1 mg/kg oral dosing; 0.05-0.2 ug/mL; assay type: ADME, organism-based, Canis lupus familiaris; design: dose 1 mg/kg, route oral; conditions: dog
[4] = Half life in dogs at 1 mg/kg oral dosing; 35-100 min; assay type: ADME, organism-based, Canis lupus familiaris; design: dose 1 mg/kg, route oral; conditions: dog, in vivo
[5] = Area Under Curve for the compound was determined in dogs at 1 mg/kg oral dosing; 25-50 ug min/mL; assay type: ADME, organism-based, Canis lupus familiaris; design: dose 1 mg/kg, route oral; conditions: dog, in vivo
Serine protease 1 = Serine protease 1 (Homo sapiens, UniProt P07477); test: Inhibitory constant against trypsin determined in Vitro; Inact. means Inactive
Coagulation factor X [6] = target: T1, Coagulation factor X; test: Inhibitory constant against human Coagulation factor Xa determined in Vitro; Inact. means Inactive
[7] = Maximum plasma concentration was determined as in dogs at 1 mg/kg oral dosing Cmax; 0.05-0.2 ug/mL; assay type: ADME, organism-based, Canis lupus familiaris; design: dose 1 mg/kg, route oral; conditions: dog

T1 sequence (P00742 41-179 limits assumed): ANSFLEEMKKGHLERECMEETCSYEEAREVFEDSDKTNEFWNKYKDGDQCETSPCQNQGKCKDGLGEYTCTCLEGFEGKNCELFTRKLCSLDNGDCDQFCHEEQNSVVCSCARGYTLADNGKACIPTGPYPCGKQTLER
T1 sequence (P00742 235-488 limits assumed): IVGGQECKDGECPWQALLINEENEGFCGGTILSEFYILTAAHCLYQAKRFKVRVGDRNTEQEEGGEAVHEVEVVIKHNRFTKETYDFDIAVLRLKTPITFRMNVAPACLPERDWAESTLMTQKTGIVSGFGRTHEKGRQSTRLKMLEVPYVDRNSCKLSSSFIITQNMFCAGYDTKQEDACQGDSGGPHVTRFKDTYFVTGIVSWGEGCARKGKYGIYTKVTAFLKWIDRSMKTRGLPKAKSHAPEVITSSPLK
Sequence of Serine protease 1 (P07477 whole entry): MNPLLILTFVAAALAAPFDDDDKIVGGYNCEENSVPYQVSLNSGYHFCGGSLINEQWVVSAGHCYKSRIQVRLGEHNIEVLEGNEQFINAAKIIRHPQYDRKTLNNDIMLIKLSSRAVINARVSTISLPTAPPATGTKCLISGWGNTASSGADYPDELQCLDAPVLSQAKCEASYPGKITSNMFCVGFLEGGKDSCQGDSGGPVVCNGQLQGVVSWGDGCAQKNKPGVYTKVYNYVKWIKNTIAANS

Compound | bioavailability [1] | Ki (Trypsin) | Ki (Coagulation factor X [2]) | Ki (Prothrombin) | Cmax [3] | half-life [4] | AUC [5] | Ki (Serine protease 1) | Ki (Coagulation factor X [6]) | Cmax [7]
COC(=O)c1ccccc1CS(=O)(=O)N[C@H]1CCCCN(CC(=O)N[C@H](C=O)CCCNC(=N)N)C1=O | 67% | 16 nM |  |  |  |  |  |  |  | 
COC(=O)c1ccccc1CS(=O)(=O)N[C@H]1CCCCN(CC(=O)N[C@@H](CCCNC(=N)N)C(=O)O)C1=O |  |  | 93 nM | 0.95 nM |  |  |  |  |  | 
N=C(N)NCCC[C@@H](C=O)NC(=O)CN1CCCC[C@H](NS(=O)(=O)Cc2ccccc2)C1=O | 66% | 18 nM |  |  |  |  |  |  |  | 
N=C(N)NCCC[C@H](NC(=O)CN1CCCC[C@H](NS(=O)(=O)Cc2ccccc2)C1=O)C(=O)O |  |  | 40 nM | 0.54 nM |  |  |  |  |  | 
N=C(N)c1ccc(CC(=O)CN2CCCC[C@H](NS(=O)(=O)c3ccccc3)C2=O)cc1 |  | 8.3 nM | > 338 nM | 19.4 nM | ~50 ng/mL | ~35 min | ~417 ng·h/mL |  |  | 
N=C(N)c1ccc(CC(=O)CN2CCCC[C@H](NS(=O)(=O)c3ccc4c(c3)CCO4)C2=O)c(F)c1 |  | 7.6 nM | > 338 nM | 29.8 nM | ~50 ng/mL | ~35 min | ~417 ng·h/mL |  |  | 
N=C(N)c1ccc(CC(=O)CN2CCCC[C@H](NS(=O)(=O)c3ccc4c(c3)CCO4)C2=O)s1 |  | 5.9 nM | 52.7 nM | 0.6 nM | ~50 ng/mL | ~35 min | ~417 ng·h/mL |  |  | 
O=C(Cc1ccc2[nH]ncc2c1)CN1CCCC[C@H](NS(=O)(=O)c2ccc3c(c2)CCO3)C1=O |  |  |  | 283 nM | ~50 ng/mL | ~35 min | ~417 ng·h/mL | Not Active | Not Active | 
COc1ccc(S(=O)(=O)N[C@H]2CCCCN(CC(=O)CC3CCN(C(=N)N)CC3)C2=O)cc1OC |  | > 1678 nM | > 338 nM | 85.7 nM | ~50 ng/mL | ~35 min | ~417 ng·h/mL |  |  | 
N=C(N)N1CCC(CC(=O)[C@@H]2Cc3cccc4c3N2C(=O)[C@@H](NS(=O)(=O)c2ccc3c(c2)CCO3)CC4)CC1 |  | 2.5 nM | 49.2 nM | 10.8 nM |  | ~35 min | ~417 ng·h/mL |  |  | ~50 ng/mL
N[C@H]1CC[C@H](CC(=O)CN2CCCC[C@H](NS(=O)(=O)c3ccc4c(c3)CCO4)C2=O)CC1 |  | > 1678 nM |  | 53.2 nM | ~50 ng/mL | ~35 min | ~417 ng·h/mL |  | Not Active | 
N/C(=N\O)c1ccc(CC(=O)CN2CCCC[C@H](NS(=O)(=O)c3ccc4c(c3)CCO4)C2=O)cc1 |  | 80.5 nM |  | 240 nM | ~50 ng/mL | ~35 min | ~417 ng·h/mL |  | Not Active | 
COc1ccc(OC)c(S(=O)(=O)N[C@H]2CCCCN(CC(=O)Cc3ccc(C(=N)N)cc3)C2=O)c1 |  | 35.2 nM | > 338 nM | 9 nM | ~50 ng/mL | ~35 min | ~417 ng·h/mL |  |  | 
N=C(N)N1CCC(CC(=O)CN2CCCC[C@H](NS(=O)(=O)c3ccc4c(c3)CCO4)C2=O)CC1 |  | 872.5 nM |  | 23.8 nM | ~50 ng/mL | ~35 min | ~417 ng·h/mL |  | Not Active | 
N[C@H]1CC[C@H](CC(=O)CN2CCCC[C@H](NS(=O)(=O)Cc3ccccc3)C2=O)CC1 |  |  |  | 195 nM | ~50 ng/mL | ~35 min | ~417 ng·h/mL | Not Active | Not Active | 
Cc1nc(N)ccc1CC(=O)CN1CCCC[C@H](NS(=O)(=O)Cc2ccccc2)C1=O |  | 1678 nM |  | 92.9 nM | ~50 ng/mL | ~35 min | ~417 ng·h/mL |  | Not Active | 
N=C(N)c1ccc(CC(=O)CN2CCCC[C@H](NS(=O)(=O)Cc3ccccc3)C2=O)cc1 |  | 84.6 nM | 315 nM | 19.4 nM | ~50 ng/mL | ~35 min | ~417 ng·h/mL |  |  | 
N/C(=N\O)c1ccc(CC(=O)CN2C(=O)[C@@H](NS(=O)(=O)c3ccc4c(c3)CCO4)CCc3ccccc32)cc1 |  |  |  | > 397 nM | ~50 ng/mL | ~35 min | ~417 ng·h/mL | Not Active | Not Active | 
N=C(N)c1ccc(CC(=O)CN2C(=O)[C@@H](NS(=O)(=O)c3ccc4c(c3)CCO4)CCc3ccccc32)cc1 |  | 19.5 nM | > 338 nM | 14.4 nM | ~50 ng/mL | ~35 min | ~417 ng·h/mL |  |  | 
COc1ccc(OC)c(S(=O)(=O)N[C@H]2CCCCN(CC(=O)CC3CCN(C(=N)N)CC3)C2=O)c1 |  |  |  | 167 nM | ~50 ng/mL | ~35 min | ~417 ng·h/mL | Not Active | Not Active | 
COc1ccc(S(=O)(=O)N[C@H]2CCCCN(CC(=O)Cc3ccc(C(=N)N)cc3)C2=O)cc1OC |  | 11.6 nM | > 338 nM | 13.3 nM | ~50 ng/mL | ~35 min | ~417 ng·h/mL |  |  | 
Cc1nc(N)ccc1CC(=O)CN1CCC[C@H](NS(=O)(=O)Cc2ccccc2)C1=O |  | > 1678 nM |  | > 397 nM | ~50 ng/mL | ~35 min | ~417 ng·h/mL |  | Not Active | 
N=C(N)N1CCC(CC(=O)CN2CCCC[C@H](NS(=O)(=O)c3ccccc3)C2=O)CC1 |  | 1678 nM | > 338 nM | 71.4 nM | ~50 ng/mL | ~35 min | ~417 ng·h/mL |  |  | 
N=C(N)c1ccc(CC(=O)CN2CCCC[C@H](NS(=O)(=O)c3ccc4c(c3)CCO4)C2=O)cc1 |  | 3.2 nM | > 338 nM | 6.2 nM | ~50 ng/mL | ~35 min | ~417 ng·h/mL |  |  | 
N=C(N)c1ccc(CC(=O)CN2CCCC[C@H](NS(=O)(=O)c3ccc4ccccc4c3)C2=O)cc1 |  | 12.3 nM | > 338 nM | 163 nM | ~50 ng/mL | ~35 min | ~417 ng·h/mL |  |  | 
Cc1nc(N)ccc1CC(=O)CN1CCCC[C@H](NS(=O)(=O)c2ccc3c(c2)CCO3)C1=O |  | 1678 nM | > 338 nM | 39.5 nM | ~50 ng/mL | ~35 min | ~417 ng·h/mL |  |  | 
N=C(N)N1CCC(CC(=O)CN2C(=O)[C@@H](NS(=O)(=O)c3ccc4c(c3)CCO4)CCc3ccccc32)CC1 |  |  |  | 61 nM | ~50 ng/mL | ~25 min | ~417 ng·h/mL | Not Active | Not Active | 
